From patent EP1137644B9, “BENZOFURAN DERIVATIVES, THEIR PREPARATION AND USE” (H. Lundbeck A/S, priority 1998, dated 2000) come the findings set out here.

Counter-ions that a name gives are not always drawn.

The subject of one experiment is Human 5-HT1A Receptors. The experiment is described as follows: Inhibition of 3H-5-CT binding to human 5-HT1A receptors. Conditions: at 100 nM; cloned human 5-HT1A receptors expressed in HeLa cells (HA7). As for the experimental part:
The affinity of the compounds of the invention to 5-HT1A receptors was determined by measuring the inhibition of binding of a radioactive ligand at 5-HT1A receptors as described in the following test:
Inhibition of ^3H-5-CT Binding to Human 5-HT1A Receptors
By this method the inhibition by drugs of the binding of the 5-HT1A agonist ^3H-5-carboxamido tryptamine (^3H-5-CT) to cloned human 5-HT1A receptors stably expressed in transfected HeLa cells (HA7) (Fargin, A. et al, J. Biol. Chem., 1989, 264, 14848) is determined in vitro. The assay was performed as a modification of the method described by Harrington, M.A. et al, J. Pharmacol. Exp. Ther., 1994, 268, 1098. Human 5-HT1A receptors (40 µg of cell homogenate) were incubated for 15 minutes at 37 °C in 50 mM Tris buffer at pH 7.7 in the presence of ^3H-5-CT. Non-specific binding was determined by including 10 µM of metergoline. The reaction was terminated by rapid filtration through Unifilter GF/B filters on a Tomtec Cell Harvester. Filters were counted in a Packard Top Counter.
Regarding `C=CCN(CCCc1cccc(OC)c1)CCCC1(c2ccc(F)cc2)OCc2cc(C#N)ccc21` (stereo not shown) [Compound 4l, 1-(4-Fluorophenyl)-1-[3-[[3-(3-methoxyphenyl)propyl](prop-2-en-1-yl)amino]propyl]-1,3-dihydroisobenzofuran-5-carbonitrile], the “Inhibition of ^3H- 5-CT binding % inhibition at 100 nM” value was found to be 76% inh. at 100 nM.

Take `COc1ccccc1OCCCN(C)CCCC1(c2ccc(F)cc2)OCc2cc(C#N)ccc21` (stereo not shown) [Compound 4m, 1-(4-Fluorophenyl)-1-[3-[[3-(2-methoxyphenoxy)propyl]methylamino]propyl]-1,3-dihydroisobenzofuran-5-carbonitrile]: the “Inhibition of ^3H- 5-CT binding % inhibition at 100 nM” value is recorded as 65% inh. at 100 nM.

Turning to `C#CCN(CCCc1c[nH]c2ccccc12)CCCC1(c2ccc(F)cc2)OCc2cc(C#N)ccc21` (stereo not shown) [Compound 4u, 1-[3-[[3-(1H-Indol-3-yl)propyl](prop-2-yn-1-yl)amino]propyl]-1-(4-fluorophenyl)-1,3-dihydroisobenzofuran-5-carbonitrile], the “Inhibition of ^3H- 5-CT binding % inhibition at 100 nM” value worked out at 58% inh. at 100 nM.

Still in this experiment, the particulars now being: cloned human 5-HT1A receptors expressed in HeLa cells (HA7), 15 minutes at 37 °C, pH 7.7.
`CN(CCCCc1cccc2c1OCCO2)CCCC1(c2ccc(F)cc2)OCc2cc(C#N)ccc21` (single isomer, unassigned; (+)) [Compound 1a, (+)-1-[3-[[4-(1,4-Benzodioxan-5-yl)butyl]methylamino]propyl]-1-(4-fluorophenyl)-1,3-dihydroisobenzofuran-5-carbonitrile] returned a half-maximal inhibitory concentration (IC50) of 39 nM.

In another experiment the test system is serotonin reuptake. The experiment is described as follows: Inhibition of 3H-5-HT uptake into rat brain synaptosomes. In kind it is biochemical. Conditions: ^3H-5-HT accumulation into whole rat brain synaptosomes. The procedure: Inhibition of ^3H-5-HT Uptake Into Rat Brain Synaptosomes
Using this method, the ability of drugs to inhibit the accumulation of ^3H-5-HT into whole rat brain synaptosomes is determined in vitro. The assay was performed as described by Hyttel, J., Psychopharmacology 1978, 60, 13.
`N#Cc1ccc2c(c1)COC2(CCCN1CCC(c2c[nH]c3cc(Cl)ccc23)CC1)c1ccc(F)cc1` (stereo not shown) [Compound 2o, 1-[3-[4-(6-chloro-1H-Indol-3-yl)piperidinyl]propyl]-1-(4-fluorophenyl)-1,3-dihydroisobenzofuran-5-carbonitrile] showed an IC50 of 31 nM.

Compound `COc1ccccc1N1CCN(CCCC2(c3ccc(F)cc3)OCc3cc(C#N)ccc32)CC1` (stereo not shown) [Compound 2a, 1-(4-Fluorophenyl)-1-[3-[4-(2-methoxyphenyl)piperazinyl]propyl]-1,3-dihydroisobenzofuran-5-carbonitrile] displayed a concentration for half-maximal inhibition (IC50) of 340 nM.

Compound `CN(CCCCc1cccc2c1OCCO2)CCCC1(c2ccc(F)cc2)OCc2cc(C#N)ccc21` (single isomer, unassigned; (+)) [Compound 1a, (+)-1-[3-[[4-(1,4-Benzodioxan-5-yl)butyl]methylamino]propyl]-1-(4-fluorophenyl)-1,3-dihydroisobenzofuran-5-carbonitrile] had a 50% inhibitory concentration (IC50) of 60 nM.

Consider `CN(CCCC1(c2ccc(F)cc2)OCc2cc(C#N)ccc21)CCc1cccc2c1OCCO2` (stereo not shown) [Compound 1c, 1-[3-[[2-(1,4-Benzodioxan-5-yl)ethyl]methylamino]propyl]-1-(4-fluorophenyl)-1,3-dihydroisobenzofuran-5-carbonitrile oxalate], for which the half-inhibitory concentration (IC50) worked out at 85 nM.

With `CN(CCCc1cccc2c1OCCO2)CCCC1(c2ccc(F)cc2)OCc2cc(C#N)ccc21` (single isomer, unassigned; (+)) [Compound 1b, (+)-1-[3-[[3-(1,4-Benzodioxan-5-yl)propyl]methylamino]propyl]-1-(4-fluorophenyl)-1,3-dihydroisobenzofuran-5-carbonitrile oxalate], the IC50 worked out at 13 nM.

`CN(CCCC1(c2ccc(F)cc2)OCc2cc(C#N)ccc21)CCc1c[nH]c2c(F)cccc12` (stereo not shown) [Compound 12b, 1-[3-[[2-(7-Fluoro-1H-indol-3-yl)ethyl]methylamino]propyl]-1-(4-fluorophenyl)-1,3-dihydroisobenzofuran-5-carbonitrile] displayed a half-inhibitory concentration (IC50) of 10 nM.

The term IC50 denotes the midpoint of a concentration-inhibition curve.
